Several values for one entry are separate records, joined by “and”; a condition that tells them apart may be missing. Equal values may be shown once. Read-outs that look alike come from different tables or passages of the source.
What was measured:
Assay type in all cases: cell-based
[1] = tested on: Bstm; assay: Example 22 direct comparison of sterilant precursors, AAMI standard EO test packs; details: Example 22: 45 min plasma, 40 kHz, 5 kW, 600 microns; 30 min preconditioning; base pressure 100 microns; Bstm 10^6 spores; peracetic acid vaporized at 60° C., hydrogen peroxide at 74° C.
Procedure: A direct comparison of 15% peracetic acid and 70% hydrogen peroxide sterilant precursors was made by exposing AAMI standard EO test packs for 45 minutes to plasma induced by 40 kHz excitation frequency with 5 kW RF power. […] No glassine was used on the BI strips (Bstm, 10^6 spore population, MDT lot 601).

[2] = tested on: biological indicator organism; assay: Example 21 designed experiments, modified AAMI EO test packs, log reduction (organism not specified); details: Example 21, mean over designed experiments; both precursors vaporized at 74° C.; 40 kHz, 5 kW
Procedure: AAMI EO Test Packs: Modified AAMI Standard EO packs were prepared in which the BI strip was removed from its glassine wrap before processing. Three strips were placed in each syringe, and the syringe was closed at its large end with the standard rubber stopper. A second syringe was prepared containing one MDT Biosign CLBI (results reported as fractional negative). The syringes were placed adjacent to one another and were wrapped in a huckabuck towel per the AAMI EO Test Pack standard. The entire assembly was placed in a Baxter ‘Tower Dual-Peel’ 7.5″×13″ paper-plastic peel pouch, which was subsequently heat sealed.
Statistical Design of Experiments: This example is based upon both Taguchi and Greco-Latin Square experimental designs in accordance with standard statistical design of experiment techniques [CSS:Statistica, StatSoft, Tulsa, Okla. ]. These experimental designs permitted variation of four parameters over four discrete levels (Greco-Latin Square) or five parameters over four discrete levels (Taguchi L′16 design). The resultant data, reported as log reduction, is analyzed to provide mean values for each of the parameters at each parameter level. Also provided are ANOVA and correlation results (for reduction vs. exposure time), which evaluate the statistical validity of the data. […]

[3] = tested on: Bacillus Subtilis var Niger; details: for vials with total kill, of ten Attest vials: Pyrex chamber, cooled cylinder, 0.280-0.300 torr, 38-57° C., moist = H2O 300 ppm
Text: However, for each of the examples the general technique involved was one in which the material to be sterilized was placed directly in the reaction chamber, or placed within a Tyvek/polyethylene pouch which itself was sealed and placed in a wire basket within the reaction chamber.
The materials used for verification of sterilization effectiveness were “Attest” vials obtained from 3M Company, or “Spordex” bacterial test strips obtained from the American Sterilizer Company, each vial or “Spordex” envelope contained a bacterial strip having an original spore population of not less than 1×10^6 Bacillus Subtilis var Niger per strip, but more commonly in the range 2.2-4.0×10^6 spores/strip. The strips contained the permeable plastic vials were not brought into contact with the culture solution contained in any of the vials prior to sterilization. The vials were placed within the Tyvek/polyethylene bags during the plasma sterilization, alongside devices or instruments to be sterilized. The bags were always sealed during the sterilization process.
For each example the chamber was first evacuated to an initial low pressure level after the materials (in the bags or pouches) were placed within it. The chamber was thereafter filled with the appropriate gas prior to striking the discharge, and the gas continued to flow through the chamber at a controlled rate to establish a steady state sterilization pressure. The discharge was initiated by the application of RF or microwave power as indicated. The discharge was maintained for a controlled time period at the end of which the power was turned off, the chamber was first evacuated, then backfilled with air through a bacteria retentive filter, and later opened and the samples removed. The temperature within the chamber during the process was maintained at less than 70° C., and more typically around 25° C. to 65° C., as sensed by an iron-constantan, type “J”, thermocouple circuitry and monitored by an analog temperature meter.
Subsequent to the tests, the spore strips in the “Attest” vials where brought into contact with the self-contained culture solution and incubated for 72 hr, at the end of which period microorganism growth or no growth would be indicated by the resultant color of the culture solution. Alternatively, the spore strips were submitted to an independent testing laboratory which performed a total plate count on the sample strips using a procedure in which 100 milliliters of sterile deionized water were added to each strip in a sterile whirl-pak bag. The bag was then placed in a lab blender for 10 minutes. One 10 milliliter aliquot of sample, a duplicate one milliliter sample, and two consecutive 10^−1 dilutions were plated using Tryptic Soy Agar. The plates were then incubated at 30-35° C. for 72 hours. After incubation, the plates were read and recorded, and the results calculated on a Colony Forming Unit (CFU) basis.

OO [70% hydrogen peroxide, hydrogen peroxide]
mean log reduction [1]: 5.43
mean log reduction [2]: 3.1 log reduction

N#N [Dry N2, Nitrogen]
vials with total kill, of ten Attest vials ([3]; Example 18: exposure 30 min, 100 scc/min, 0.020 W/cc): 0 vials - total kill
vials with total kill, of ten Attest vials ([3]; Example 18: exposure 45 min, 100 scc/min, 0.020 W/cc): 0 vials - total kill
vials with total kill, of ten Attest vials ([3]; Example 18: exposure 60 min, 100 scc/min, 0.020 W/cc): 1 vial - total kill vials
vials with total kill, of ten Attest vials ([3]; Example 18: exposure 75 min, 100 scc/min, 0.020 W/cc): 2 vials - total kill

O=O [O2, Oxygen]
Percent Kill [3]: 99.9999%
Percent Kill (%) [3]: 77.6923% and 99.9999%
Resultant Microbial Count (CFUs) [3]: 5.8 × 10^5 CFUs and <10 CFUs
Resultant microbial count [3]: < 10 CFU
Percent Kill ([3]; Example 2: metal chamber, cooled perforated cylinder (FIG. 4), 20 scc/min, 0.30 torr, 0.050 W/cm^3, 60 min, 32° C.): Total kill
Percent Kill ([3]; Example 4: metal chamber, two uncooled perforated cylinders (FIG. 6), 20 scc/min, 0.30 torr, 0.050 W/cm^3, 60 min, 76° C.): Total kill
Percent Kill ([3]; Example 8: Pyrex chamber, cooled perforated cylinder (FIG. 1), 25 scc/min, 0.30 torr, 0.015 W/cm^3, 30 min, 26° C.): Total kill
Percent Kill ([3]; Example 9: Pyrex chamber, uncooled perforated cylinder (FIG. 1), 25 scc/min, 0.30 torr, 0.015 W/cm^3, 30 min, 83° C.): Total kill
Percent Kill ([3]; Example 12: Pyrex chamber, two uncooled perforated cylinders, 70 scc/min, 0.275 torr, 0.016 W/cc, 45 min, 92° C., AAMI standard sterilization test pack): Total Kill
Percent Kill ([3]; Example 13: Pyrex chamber, two cooled perforated cylinders, conditions as Example 12, 54° C., AAMI test pack): Total Kill
Percent Kill ([3]; Example 14: Pyrex chamber, uncooled perforated cylinder, 70 scc/min, 0.275 torr, 0.014 W/cc, 30 min, 85° C.): Total Kill
Percent Kill ([3]; Example 15: Pyrex chamber, cooled perforated cylinder (FIG. 1), conditions as Example 14, 47° C.): Total Kill
Percent Kill ([3]; Example 16: Pyrex chamber, cooled perforated cylinder (FIG. 1), conditions as Example 14, exposure 2¼ hr, 51° C.): Total Kill
Percent Kill ([3]; Example 19: spore strip in middle of 24-inch PVC or silicone rubber tubing, in sealed pouch, 100 scc/min, 0.280 torr, 0.020 W/cc, 70-105 min, 50° C.): Total Kill

CC(=O)OO [15% peracetic acid, peracetic acid]
mean log reduction [1]: 5.57
mean log reduction [2]: 2.8 log reduction
